Measurements from patent US4684664A, “Derivatives of β-(4-isocyano-1,2,3,4-diepoxycyclopentyl) acrylic acid” (Kureha Kagaku Kogyo Kabushiki Kaisha, priority 1984, dated 1987).
≈ marks a conversion by molar mass, not a printed value.

Experiments:
Format in all cases: cell-based
[1] = tested on: Staphylococcus aureus MS 353; test: Antibacterial activity, agar-dilution MIC, organism No. 3; conditions: Staphylococcus aureus, MS353; Organism No. 3, bouillon-agar; read-out: Minimum Inhibitory Concentration
Excerpt: (§1) Agar-dilution method was used for determination of the antibacterial activity and antifungal activity while using bouillon-agar culture medium, and the minimum inhibitory concentration of the specimen was expressed by μg/ml of the culture medium.

[2] = tested on: Enterobacter aerogenes ATCC 13048; test: Antibacterial activity, agar-dilution MIC, organism No. 23; conditions: Klebsiella aerogenes, ATCC13048; Organism No. 23, bouillon-agar; read-out: Minimum Inhibitory Concentration
Excerpt: as §1

[3] = tested on: Bacillus subtilis ATCC 6633; test: Antibacterial activity, agar-dilution MIC, organism No. 14; conditions: Bacillus subtilis, ATCC6633; Organism No. 14, bouillon-agar; read-out: Minimum Inhibitory Concentration
Excerpt: as §1

[4] = tested on: Staphylococcus aureus Terajima; test: Antibacterial activity, agar-dilution MIC, organism No. 2; conditions: Staphylococcus aureus; Organism No. 2, bouillon-agar; read-out: Minimum Inhibitory Concentration
Excerpt: as §1

[5] = tested on: Escherichia coli NIHJ-JC-2; test: Antibacterial activity, agar-dilution MIC, organism No. 5; conditions: Escherichia coli, NIHJJC2; Organism No. 5, bouillon-agar; read-out: Minimum Inhibitory Concentration
Excerpt: as §1

[6] = tested on: Mycoplasma pneumoniae IID817; test: Antimycoplasmal activity, MIC by phenol red colour change, organism No. 28; conditions: Mycoplasma, IID817; Organism No. 28, PPLO broth + 1% glucose, 37° C.; read-out: Minimum Inhibitory Concentration (MIC)
Experimental: Mycoplasma pneumoniae IID817 was used as the test microorganism in a culture medium prepared by adding 1% of glucose to "PPLO broth (manufactured by Difco Co.) liquid culture medium" at 37° C. with phenol red as an indicator, thereby culturing the test microorganism.

[7] = tested on: Klebsiella pneumoniae PCI-602; test: Antibacterial activity, agar-dilution MIC, organism No. 7; conditions: Klebsiella pneumoniae, PCI602; Organism No. 7, bouillon-agar; read-out: Minimum Inhibitory Concentration
Excerpt: as §1

[8] = tested on: Pseudomonas aeruginosa NCTC 10490; test: Antibacterial activity, agar-dilution MIC, organism No. 16; conditions: Pseudomonas aeruginosa, NCTC10490; Organism No. 16, bouillon-agar; read-out: Minimum Inhibitory Concentration
Excerpt: as §1

[9] = tested on: Salmonella typhi 901; test: Antibacterial activity, agar-dilution MIC, organism No. 9; conditions: Salmonella enterica, TYPHI, read-out: Minimum Inhibitory Concentration
Excerpt: as §1

[10] = tested on: Salmonella shottmuelleri 8006; test: Antibacterial activity, agar-dilution MIC, organism No. 11; conditions: Salmonella, 8006; Organism No. 11, bouillon-agar; read-out: Minimum Inhibitory Concentration
Excerpt: as §1

[11] = tested on: Salmonella enteritidis G 14; test: Antibacterial activity, agar-dilution MIC, organism No. 12; conditions: Salmonella enterica, ENTERITIDIS; Organism No. 12, bouillon-agar; read-out: Minimum Inhibitory Concentration
Excerpt: as §1

[12] = tested on: Candida albicans IAM 4905; test: Antifungal activity, agar-dilution MIC, organism No. 29; conditions: Candida albicans, IAM4905; Organism No. 29, bouillon-agar; read-out: Minimum Inhibitory Concentration
Excerpt: as §1

[13] = tested on: Proteus vulgaris OX-19; test: Antibacterial activity, agar-dilution MIC, organism No. 20; conditions: Proteus vulgaris, OX19; Organism No. 20, bouillon-agar; read-out: Minimum Inhibitory Concentration
Excerpt: as §1

[14] = tested on: Proteus rettgeri IFO 3850; test: Antibacterial activity, agar-dilution MIC, organism No. 22; conditions: Providencia rettgeri, IFO3850; Organism No. 22, bouillon-agar; read-out: Minimum Inhibitory Concentration
Excerpt: as §1

[15] = tested on: Proteus mirabilis IFO 3849; test: Antibacterial activity, agar-dilution MIC, organism No. 19; conditions: Proteus mirabilis, IFO3849; Organism No. 19, bouillon-agar; read-out: Minimum Inhibitory Concentration
Excerpt: as §1

[16] = tested on: Staphylococcus aureus FDA 209PJc-1; test: Antibacterial activity, agar-dilution MIC, organism No. 1; conditions: Staphylococcus aureus, FDA209PJC1; Organism No. 1, bouillon-agar; read-out: Minimum Inhibitory Concentration
Excerpt: as §1

[17] = tested on: Streptococcus pyogenes Cook; test: Antibacterial activity, agar-dilution MIC, organism No. 4; conditions: Streptococcus pyogenes; Organism No. 4, bouillon-agar; read-out: Minimum Inhibitory Concentration
Excerpt: as §1

[18] = tested on: Micrococcus luteus ATCC 9341; test: Antibacterial activity, agar-dilution MIC, organism No. 25; conditions: Micrococcus luteus, ATCC9341; Organism No. 25, bouillon-agar; read-out: Minimum Inhibitory Concentration
Excerpt: as §1

[19] = tested on: Pseudomonas aeruginosa PAO 1; test: Antibacterial activity, agar-dilution MIC, organism No. 17; conditions: Pseudomonas aeruginosa, PAO1; Organism No. 17, bouillon-agar; read-out: Minimum Inhibitory Concentration
Excerpt: as §1

[20] = tested on: Aspergillus niger IFO 6342; test: Antifungal activity, agar-dilution MIC, organism No. 30; conditions: Aspergillus niger, IFO6342; Organism No. 30, bouillon-agar; read-out: Minimum Inhibitory Concentration
Excerpt: as §1

[21] = tested on: Proteus vulgaris HX-19; test: Antibacterial activity, agar-dilution MIC, organism No. 21; conditions: Proteus vulgaris, HX19; Organism No. 21, bouillon-agar; read-out: Minimum Inhibitory Concentration
Excerpt: as §1

[22] = tested on: Streptococcus pyogenes IFO 3340; test: Antibacterial activity, agar-dilution MIC, organism No. 26; conditions: Streptococcus pyogenes, IFO3340; Organism No. 26, bouillon-agar; read-out: Minimum Inhibitory Concentration
Excerpt: as §1

[23] = tested on: Salmonella typhimurium IID 971; test: Antibacterial activity, agar-dilution MIC, organism No. 8; conditions: Salmonella enterica; Organism No. 8, bouillon-agar; read-out: Minimum Inhibitory Concentration
Excerpt: as §1

[24] = tested on: Escherichia coli K12 C600 IAM 1264; test: Antibacterial activity, agar-dilution MIC, organism No. 6; conditions: Escherichia coli, IAM1264; Organism No. 6, bouillon-agar; read-out: Minimum Inhibitory Concentration
Excerpt: as §1

[25] = tested on: Enterobacter cloacae 963; test: Antibacterial activity, agar-dilution MIC, organism No. 24; conditions: Enterobacter cloacae, 963; Organism No. 24, bouillon-agar; read-out: Minimum Inhibitory Concentration
Excerpt: as §1

[26] = tested on: Pseudomonas aeruginosa IFO 3445; test: Antibacterial activity, agar-dilution MIC, organism No. 15; conditions: Pseudomonas aeruginosa, IFO3445; Organism No. 15, bouillon-agar; read-out: Minimum Inhibitory Concentration
Excerpt: as §1

[27] = tested on: Streptococcus faecium IFO 3826; test: Antibacterial activity, agar-dilution MIC, organism No. 27; conditions: Enterococcus faecium, IFO3826; Organism No. 27, bouillon-agar; read-out: Minimum Inhibitory Concentration
Excerpt: as §1

[28] = tested on: Proteus morganii IFO 3848; test: Antibacterial activity, agar-dilution MIC, organism No. 18; conditions: Morganella morganii, IFO3848; Organism No. 18, bouillon-agar; read-out: Minimum Inhibitory Concentration
Excerpt: as §1

[29] = tested on: Salmonella paratyphi-A 1015; test: Antibacterial activity, agar-dilution MIC, organism No. 10; conditions: Salmonella enterica, PARATYPHI, read-out: Minimum Inhibitory Concentration
Excerpt: as §1

`[C-]#[N+]C12CC3(/C=C/C(=O)N[C@@H](C(=O)OCc4ccccc4)C(C)C)OC3C1O2` (stereo partly drawn) [compound 30] gave an MIC [1] of over 200 µg/mL, an MIC [2] of over 200 µg/mL and an MIC [3] of over 200 µg/mL. For the same molecule, the MIC [4] was over 200 µg/mL, the MIC [5] was over 200 µg/mL and the MIC [6] was over 100 µg/mL. It also gave an MIC [7] of over 200 µg/mL, an MIC [8] of over 200 µg/mL and an MIC [9] of over 200 µg/mL. For the same molecule, the MIC [10] was over 200 µg/mL, the MIC [11] was over 200 µg/mL and the MIC [12] was over 100 µg/mL. It also gave an MIC [13] of over 200 µg/mL, an MIC [14] of over 200 µg/mL and an MIC [15] of over 200 µg/mL. It also gave an MIC [16] of over 200 µg/mL, an MIC [17] of over 200 µg/mL and an MIC [18] of 1.56 µg/mL (≈ 4.08 µM). It also gave an MIC [19] of over 200 µg/mL, an MIC [20] of over 100 µg/mL and an MIC [21] of over 200 µg/mL. For the same molecule, the MIC [22] was over 200 µg/mL, the MIC [23] was over 200 µg/mL and the MIC [24] was over 200 µg/mL. The MIC [25] was over 200 µg/mL, the MIC [26] was over 200 µg/mL and the MIC [27] was over 200 µg/mL. The MIC [28] was over 200 µg/mL and the MIC [29] was over 200 µg/mL.
With `[C-]#[N+]C12CC3(/C=C/C(=O)Nc4ccc(Br)cc4)OC3C1O2` (stereo not drawn) [compound 44] the MIC [1] was 0.39 µg/mL (≈ 1.12 µM), the MIC [2] was over 200 µg/mL and the MIC [3] was 25 µg/mL (≈ 72 µM). For the same molecule, the MIC [4] was 3.13 µg/mL (≈ 9.02 µM), the MIC [5] was over 200 µg/mL and the MIC [6] was under 0.2 µg/mL. For the same molecule, the MIC [7] was 0.2 µg/mL (≈ 0.576 µM), the MIC [8] was over 200 µg/mL and the MIC [9] was 12.5 µg/mL (≈ 36 µM). The MIC [10] was 3.13 µg/mL (≈ 9.02 µM), the MIC [11] was 50 µg/mL (≈ 144 µM) and the MIC [12] was 0.39 µg/mL (≈ 1.12 µM). For the same molecule, the MIC [13] was 6.25 µg/mL (≈ 18 µM), the MIC [14] was 100 µg/mL (≈ 288 µM) and the MIC [15] was over 200 µg/mL. For the same molecule, the MIC [16] was 0.39 µg/mL (≈ 1.12 µM), the MIC [17] was over 200 µg/mL and the MIC [18] was under 0.05 µg/mL. It also gave an MIC [19] of over 200 µg/mL, an MIC [20] of 1.56 µg/mL (≈ 4.49 µM) and an MIC [21] of 0.1 µg/mL (≈ 0.288 µM). For the same molecule, the MIC [22] was 12.5 µg/mL (≈ 36 µM), the MIC [23] was 50 µg/mL (≈ 144 µM) and the MIC [24] was over 200 µg/mL. It also gave an MIC [25] of over 200 µg/mL, an MIC [26] of over 200 µg/mL and an MIC [27] of 200 µg/mL (≈ 576 µM). For the same molecule, the MIC [28] was 3.13 µg/mL (≈ 9.02 µM) and the MIC [29] was 3.13 µg/mL (≈ 9.02 µM).
In the case of `[C-]#[N+]C12CC3(/C=C/C(=O)Nc4ccc(F)cc4)OC3C1O2` (stereo not drawn) [compound 43], the MIC [1] is reported as 1.56 µg/mL (≈ 5.45 µM), the MIC [2] is reported as over 200 µg/mL and the MIC [3] is reported as 6.25 µg/mL (≈ 21.8 µM). It also gave an MIC [4] of 3.13 µg/mL (≈ 10.9 µM), an MIC [5] of 6.25 µg/mL (≈ 21.8 µM) and an MIC [6] of under 0.2 µg/mL. For the same molecule, the MIC [7] was 0.78 µg/mL (≈ 2.72 µM), the MIC [8] was over 200 µg/mL and the MIC [9] was 1.56 µg/mL (≈ 5.45 µM). The MIC [10] was 0.78 µg/mL (≈ 2.72 µM), the MIC [11] was 3.13 µg/mL (≈ 10.9 µM) and the MIC [12] was 0.39 µg/mL (≈ 1.36 µM). It also gave an MIC [13] of 0.39 µg/mL (≈ 1.36 µM), an MIC [14] of 1.56 µg/mL (≈ 5.45 µM) and an MIC [15] of 12.5 µg/mL (≈ 43.7 µM). It also gave an MIC [16] of 0.78 µg/mL (≈ 2.72 µM), an MIC [17] of 25 µg/mL (≈ 87.3 µM) and an MIC [18] of 0.2 µg/mL (≈ 0.699 µM). The MIC [19] was over 200 µg/mL, the MIC [20] was 1.56 µg/mL (≈ 5.45 µM) and the MIC [21] was 0.39 µg/mL (≈ 1.36 µM). For the same molecule, the MIC [22] was 3.13 µg/mL (≈ 10.9 µM), the MIC [23] was 6.25 µg/mL (≈ 21.8 µM) and the MIC [24] was 25 µg/mL (≈ 87.3 µM). It also gave an MIC [25] of 12.5 µg/mL (≈ 43.7 µM), an MIC [26] of over 200 µg/mL and an MIC [27] of 12.5 µg/mL (≈ 43.7 µM). For the same molecule, the MIC [28] was 0.39 µg/mL (≈ 1.36 µM) and the MIC [29] was 0.78 µg/mL (≈ 2.72 µM).
